This note sets out measurements from patent publication US11053226B2, “KRAS G12C inhibitors and methods of using the same” (Amgen Inc., priority 2018, dated 2021).

For assay [1], the system named is Phosphorylation of ERK1/2 in MIA PaCa-2 cells. Nature of the assay: Phospho-ERK1/2 MSD Assay. To be noted: MiaPaCa-2 cells. The class given is cell-based.
The target of assay [2] is GDP-bound KRAS protein (aa 1-169), containing both G12C and C118A amino acid substitutions (Homo sapiens (Human), UniProt P01116, C118A/G12C). Nature of the assay: Coupled Nucleotide Exchange Assay. It counts as biochemical. On the procedure: For compounds in Table 9, the following assay conditions were employed:
Coupled Nucleotide Exchange Assay:
The assay plates were then read on a PerkinElmer EnVision Multilabel Reader, using AlphaScreen® technology, and data were analyzed using a 4-parameter logistic model to calculate IC50 values.

Assay [3] relates to Phosphorylation of ERK1/2 in A549 cells. Nature of the assay: Phospho-ERK1/2 MSD Assay (A549). It counts as cell-based.
The mark [4] stands for this setting: Homo sapiens, MIA PaCa-2, 4 h, read-out: pERK IC50 (4 h, MiaPaCa-2), 4 h compound treatment.
The mark [5] stands for this setting: read-out: Coupled Exchange IC50 (2 h), 2 h compound pre-incubation.
Where [6] appears, read: Homo sapiens, A549, 4 h, read-out: pERK IC50 (4 h, A549), 4 h compound treatment.
Setting [7] is: read-out: Coupled Exchange IC50 (20 h), 20 h compound pre-incubation.
Setting [8] is: Homo sapiens, MIA PaCa-2, read-out: pERK IC50 (4 h), 4 h compound treatment.
The mark [9] stands for this setting: Homo sapiens, read-out: pERK IC50 (4 h), 4 h compound treatment.
Setting [10] is: read-out: Coupled Exchange IC50 (5 min), 5 min compound pre-incubation.

Where two headings read alike, the source gives them in different places.

Sequence of GDP-bound KRAS protein (aa 1-169), containing both G12C and C118A amino acid substitutions (P01116 other isoform, or with tags, fused parts or gaps G12C/C118A): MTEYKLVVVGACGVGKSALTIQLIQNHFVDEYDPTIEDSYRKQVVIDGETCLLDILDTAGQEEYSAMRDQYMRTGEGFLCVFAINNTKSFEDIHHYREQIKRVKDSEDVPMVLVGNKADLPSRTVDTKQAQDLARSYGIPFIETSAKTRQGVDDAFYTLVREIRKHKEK

On to `C=CC(=O)N1CC(N(C)C(=O)Cn2c(C)c(C(=O)N3CCN(c4ccc(C#N)cn4)C[C@H]3C)c3cc(Br)ccc32)C1` [Example 8], for which the IC50 in assay [1] (setting [4]) was 1.56 µM; in assay [2] (setting [5]) it was 0.22 µM; in assay [3] (setting [6]), > 100 µM.
Take `C=CC(=O)N1CC(NC(=O)Cn2c(C)c(C(=O)N3[C@H](C)c4ccc(F)cc4C[C@@H]3C)c3cc(Br)cc(C)c32)C1` [Example 9]: the IC50 is 1.56 µM in assay [1] (setting [4]), 0.2 µM in assay [2] (setting [5]) and 41.6 µM in assay [3] (setting [6]).
For `C=CC(=O)N1CC(N(C)C(=O)Cn2c(C)c(C(=O)N3CCN(c4ccc(C(F)(F)F)cn4)CC3)c3cc(Br)ccc32)C1` [Example 10], the concentration for half-maximal inhibition (IC50) is 1.58 µM in assay [1] (setting [4]), 0.82 µM in assay [2] (setting [5]) and 43.4 µM in assay [3] (setting [6]).
For `C=CC(=O)N1CC(NC(=O)Cn2c(C3CC3)c(C(=O)N3CCCC(C)(C)C3)c3cc(Cl)cc(C)c32)C1` [Example 11] the same measures were 1.6 µM, 0.66 µM and 36.4 µM.
As to `C=CC(=O)N1CC(NC(=O)Cn2c(C)c(C(=O)N3CCc4c(ccnc4OC)C3)c3cc(Br)ccc32)C1` [Example 12], the IC50 was 1.65 µM in assay [1] (setting [4]), 0.51 µM in assay [2] (setting [5]), 0.17 µM in assay [2] (setting [7]) and > 100 µM in assay [3] (setting [6]).
In the case of `C=CC(=O)N1CC(NC(=O)Cn2c(C)c(C(=O)N3CCc4c(cccc4OC)C3)c3cc(Br)ccc32)C1` [Example 13], the IC50 in assay [1] (setting [4]) is 1.68 µM; in assay [2] (setting [5]), 0.3 µM; in assay [2] (setting [7]) it was 0.11 µM; in assay [3] (setting [6]) it was > 100 µM.
Regarding `C=CC(=O)N1CC(NC(=O)Cn2c(C3CC3)c(C(=O)N3CCN(c4ccc(C#N)cn4)CC3)c3cc(Cl)cc(C)c32)C1` [Example 14], the values for the IC50 in assay [1] (setting [4]), in assay [2] (setting [5]) and in assay [3] (setting [6]) were 1.7 µM, 0.58 µM and > 100 µM, respectively.
For `C=CC(=O)N1CC(NC(=O)Cn2cc(C(=O)N3CCc4c(ccnc4OC)C3)c3c(Cl)c(Cl)ccc32)C1` [Example 15] the same measures were 1.79 µM, 0.22 µM and > 100 µM.
In the case of `C=CC(=O)N1CC(NC(=O)Cn2c(C)c(C(=O)N3CCc4c(cccc4OC)C3)c3cc([N+](=O)[O-])ccc32)C1` [Example 17], the IC50 was 1.83 µM in assay [1] (read-out: pERK IC50 (4 h, MiaPaCa-2), 4 h compound treatment); 1.22 µM in assay [2] (setting [5]); 0.3 µM in assay [2] (setting [7]); > 100 µM in assay [3] (read-out: pERK IC50 (4 h, A549), 4 h compound treatment).
Turning to `C=CC(=O)N1CC(NC(=O)Cn2c(C)c(-c3cnccc3C3CC3)c3cc(Cl)ccc32)C1` [Example 18], the results for the IC50 in assay [1] (setting [8]), in assay [2] (setting [5]) and in assay [3] (setting [9]) were 1.85 µM, 0.97 µM and > 100 µM, respectively.
For `C=CC(=O)N1CC(N(C)C(=O)Cn2c(C3CC3)c(C(=O)N3CCN(c4ccc(C#N)cn4)CC3)c3cc(Cl)cc(C)c32)C1` [Example 19], the IC50 in assay [1] (setting [4]) was 1.87 µM; in assay [2] (setting [5]), 0.61 µM; in assay [3] (setting [6]) it was > 100 µM.
Consider `C=CC(=O)N1CC(N(C)C(=O)Cn2c(C)c(C(=O)N3CCN(c4ccc(Br)cn4)CC3)c3cc(Br)ccc32)C1` [Example 21], for which the IC50 was determined as 1.95 µM in assay [1] (setting [4]), 0.49 µM in assay [2] (setting [5]), 0.1 µM in assay [2] (setting [7]) and 27.3 µM in assay [3] (setting [6]).
With `C=CC(=O)N1CC(NC(=O)Cn2c(C)c(C(=O)N3[C@H](C)CN(c4ccc(C#N)cn4)C[C@H]3C)c3cc(Br)ccc32)C1` [Example 22], the concentration for half-maximal inhibition (IC50) was 2.02 µM in assay [1] (setting [4]), 0.19 µM in assay [2] (setting [5]) and > 100 µM in assay [3] (setting [6]).
For `C=CC(=O)N1CC(NC(=O)Cn2c(C3CC3)c(C(=O)N3CCOC(C)(C)C3)c3cc(Cl)cc(C)c32)C1` [Example 23] the same measures were 2.35 µM, 0.95 µM and > 100 µM.
Turning to `C=CC(=O)N1CC(NC(=O)Cn2c(C)c(C(=O)N3CCc4c(C)cccc4C3)c3cc(Br)ccc32)C1` [Example 25], the IC50 was 2.47 µM in assay [1] (setting [4]), 0.54 µM in assay [2] (setting [5]), 0.09 µM in assay [2] (setting [7]) and > 100 µM in assay [3] (setting [6]).
For `C=CC(=O)N1CC(N(C)C(=O)Cn2c(C)c(C(=O)N3CCN(c4ccc(C#N)cn4)CC3)c3cc(Br)ccc32)C1` [Example 27] the same measures were 2.5 µM, 0.77 µM, 0.24 µM and > 100 µM.
As for `C=CC(=O)N1CC(NC(=O)Cn2c(C)c(C(=O)N3CCc4c(ccnc4OC)C3)c3cc(Cl)ccc32)C1` [Example 28], the IC50 in assay [1] (setting [4]) is 2.63 µM; in assay [2] (setting [5]) it was 0.59 µM; in assay [2] (setting [7]) it was 0.18 µM; in assay [3] (setting [6]), > 100 µM.
With `C=CC(=O)N1CC(NC(=O)Cn2c(C)c(-c3cncnc3C3CC3)c3cc(Cl)ccc32)C1` [Example 30], the IC50 was 2.68 µM in assay [1] (setting [8]), 2.32 µM in assay [2] (setting [5]) and > 100 µM in assay [3] (setting [9]).
For the compound `C=CC(=O)N1CC(NC(=O)Cn2c(C)c(-c3ccccc3CN(C)C)c3cc(Cl)ccc32)C1` [Example 32], the IC50 in assay [1] (setting [8]) is 2.73 µM; in assay [2] (setting [10]), 202 µM; in assay [2] (setting [5]) it was 6.05 µM; in assay [3] (setting [9]), > 100 µM.
As for `C=CC(=O)N1CC(N(C)C(=O)Cn2c(C)c(C(=O)N3CCc4c(cccc4OC)C3)c3cc(Cl)ccc32)C1` [Example 33], the IC50 was 2.8 µM in assay [1] (setting [4]), 0.21 µM in assay [2] (setting [5]), 0.13 µM in assay [2] (setting [7]) and > 100 µM in assay [3] (setting [6]).
As for `C=CC(=O)N1CC(NC(=O)Cn2c(C)c(C(=O)N3CCc4ccccc4C3(C)C)c3cc(Br)cc(C)c32)C1` [Example 35], the values for the IC50 in assay [1] (setting [4]), in assay [2] (setting [5]) and in assay [3] (setting [6]) were 3.06 µM, 0.29 µM and 55.7 µM, respectively.
With `C=CC(=O)N1CC(NC(=O)Cn2c(C)c(-c3ccccc3C3CC3)c3cc(Cl)ccc32)C1` [Example 36], the IC50 in assay [1] (setting [8]) is 3.31 µM; in assay [2] (setting [5]), 0.71 µM; in assay [2] (setting [7]), 0.2 µM; in assay [3] (setting [9]), > 33.3 µM.
For `C=CC(=O)N1CC(N(C)C(=O)Cn2c(C)c(C(=O)N3CCN(c4ccc([N+](=O)[O-])cn4)CC3)c3cc(Br)ccc32)C1` [Example 38], the IC50 in assay [1] (setting [4]) is 3.33 µM; in assay [2] (setting [5]) it was 0.76 µM; in assay [2] (setting [7]), 0.22 µM; in assay [3] (setting [6]), > 100 µM.
`C=CC(=O)N1CC(NC(=O)Cn2c(C)c(C(=O)N3Cc4ccccc4CC3C)c3cc(Br)cc(C)c32)C1` (stereo not shown) [Example 39]: the IC50 was found to be 3.35 µM in assay [1] (setting [4]), 0.33 µM in assay [2] (setting [5]) and 60.3 µM in assay [3] (setting [6]).
`C=CC(=O)N1CC(NC(=O)Cn2c(C)c(C(=O)N3CCc4c(cccc4OC)C3)c3cc(Cl)ccc32)C1` [Example 41]: the IC50 was 3.55 µM in assay [1] (setting [4]), 0.37 µM in assay [2] (setting [5]), 0.12 µM in assay [2] (setting [7]) and > 100 µM in assay [3] (setting [6]).
For `C=CC(=O)N1CC(N(C)C(=O)Cn2cc(I)c3cc(Br)ccc32)C1` [Example 43], the IC50 in assay [1] (setting [8]) is 3.82 µM; in assay [2] (setting [10]), 36.6 µM; in assay [2] (setting [5]), 4.65 µM; in assay [2] (setting [7]), 0.44 µM; in assay [3] (setting [9]), > 33.3 µM.
As to `C=CC(=O)N1CC(NC(=O)Cn2c(C)c(-c3ccccc3N3CCOCC3)c3cc(Cl)ccc32)C1` [Example 49], the 50% inhibitory concentration (IC50) turned out to be 4.67 µM in assay [1] (setting [8]), 0.72 µM in assay [2] (setting [5]) and 7.68 µM in assay [3] (setting [9]).
Turning to `C=CC(=O)N1CC(NC(=O)Cn2c(C)c(C(=O)N3CCc4c(C)cc(Br)cc4C3)c3cc(Br)ccc32)C1` [Example 51], the IC50 in assay [1] (setting [4]) is 4.82 µM; in assay [2] (setting [5]) it was 0.75 µM; in assay [2] (setting [7]), 0.18 µM; in assay [3] (setting [6]), > 100 µM.
`C=CC(=O)N1CC(N(C)C(=O)Cn2c(C)c(C(=O)N3CCN(c4ccc(C#N)cn4)C[C@@H]3C)c3cc(Br)ccc32)C1` [Example 52]: the IC50 in assay [1] (setting [4]) was 4.83 µM; in assay [2] (setting [5]) it was 0.53 µM; in assay [3] (setting [6]), > 100 µM.
On to `C=CC(=O)N1CC(N(C)C(=O)Cn2c(C)c(C(=O)N3CCN(c4ccc(C)cn4)CC3)c3cc(Cl)cc(C)c32)C1` [Example 53], for which the IC50 was 5 µM in assay [1] (setting [4]), 0.85 µM in assay [2] (setting [5]), 0.18 µM in assay [2] (setting [7]) and > 100 µM in assay [3] (setting [6]).
For `C=CC(=O)N1CC(NC(=O)Cn2c(C)c(-c3ccccc3CC)c3cc(Cl)ccc32)C1` [Example 54], the IC50 in assay [1] (setting [8]) is 5.88 µM; in assay [2] (setting [10]), 4.37 µM; in assay [2] (setting [5]), 0.65 µM; in assay [2] (setting [7]) it was 0.2 µM; in assay [3] (setting [9]), > 33.3 µM.
Turning to `C=CC(=O)N1CC(NC(=O)Cn2c3ccc(Br)cc3c3ccc(Oc4cccnc4)nc32)C1` [Example 55], the IC50 in assay [1] (setting [8]) is 5.93 µM; in assay [2] (setting [5]), 0.95 µM; in assay [2] (setting [7]), 0.23 µM; in assay [3] (setting [9]), > 100 µM.
With `C=CC(=O)N1CC(NC(=O)Cn2c(C)c(-c3ccccc3Cc3ccccc3)c3cc(Cl)ccc32)C1` [Example 56], the IC50 in assay [1] (setting [8]) is 6.17 µM; in assay [2] (setting [10]), 4.77 µM; in assay [2] (setting [5]), 0.88 µM; in assay [3] (setting [9]), > 100 µM.
`C=CC(=O)N1CC(NC(=O)Cn2c3ccc(Br)cc3c3ccc(Oc4ccccn4)nc32)C1` [Example 57]: the concentration for half-maximal inhibition (IC50) in assay [1] (setting [8]) is 6.81 µM; in assay [2] (setting [5]) it was 0.99 µM; in assay [2] (setting [7]), 0.14 µM; in assay [3] (setting [9]) it was > 100 µM.
For `C=CC(=O)N1CC(NC(=O)Cn2c(C)c(C(=O)N3CCc4c(O)cccc4C3)c3cc(Br)ccc32)C1` [Example 58], the IC50 in assay [1] (setting [4]) was 6.81 µM; in assay [2] (setting [5]) it was 0.28 µM; in assay [2] (setting [7]) it was 0.11 µM; in assay [3] (setting [6]), > 33.3 µM.

What is called IC50 is the concentration that inhibits the measured activity by half.
